# Target: T1, human CD73 (Homo sapiens, UniProt P21589)
# T1 sequence (P21589 27-549): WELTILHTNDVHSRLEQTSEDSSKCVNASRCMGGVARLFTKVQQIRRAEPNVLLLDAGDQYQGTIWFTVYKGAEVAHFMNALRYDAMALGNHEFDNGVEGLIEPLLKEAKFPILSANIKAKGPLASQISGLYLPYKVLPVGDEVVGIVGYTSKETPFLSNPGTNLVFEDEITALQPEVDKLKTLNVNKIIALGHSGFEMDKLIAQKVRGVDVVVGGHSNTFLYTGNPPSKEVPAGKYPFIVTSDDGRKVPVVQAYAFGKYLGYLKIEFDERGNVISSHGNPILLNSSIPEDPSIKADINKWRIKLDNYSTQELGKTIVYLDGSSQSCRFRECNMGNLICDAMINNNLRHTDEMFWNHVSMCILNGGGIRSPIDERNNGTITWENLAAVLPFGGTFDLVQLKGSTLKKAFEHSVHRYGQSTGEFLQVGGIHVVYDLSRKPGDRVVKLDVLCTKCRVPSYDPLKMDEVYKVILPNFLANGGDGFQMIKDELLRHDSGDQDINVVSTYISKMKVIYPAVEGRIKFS
# Test: Inhibition of Ecto-5′-nucleotidase (CD73) activity in CHO-CD73 cells, phosphate release from AMP
# Format: cell-based
# Conditions: CHO-K1 cells stably transfected with human CD73; 25 μM AMP; 50 minutes, 37° C.; read-out: Potency: CD73 IC50
row,IC50,SMILES
1,> 1000 nM,N#Cc1ccc(Cn2nccc2-c2cc(F)c3nnn(-c4ccc5oc(=O)[nH]c5c4)c3c2)cc1 [Example 166]
2,> 1000 nM,O=c1[nH]c2ccc(-n3nnc4c(F)cc(-c5ccnn5Cc5cccnn5)cc43)cc2[nH]1 [Example 206]
3,< 100 nM,N#Cc1ccc(Cn2nccc2-c2cc3c(cc2Cl)nnn3-c2ccc3cn[nH]c3c2)cc1 [Example 150]
4,100 to 1000 nM,Cc1ccc(C(C)n2nccc2-c2cc(Cl)c3nnn(-c4ccc5cn[nH]c5c4)c3c2)[n+]([O-])c1 (centres unmarked) [Example 390]
5,> 1000 nM,N#Cc1cccc(-n2nccc2-c2cc3c(cn2)nnn3-c2ccc3[nH]c(=O)[nH]c3c2)c1 [Example 197]
6,100 to 1000 nM,Cc1nn(-c2ccc3cn[nH]c3c2)c2cc(-c3ccnn3Cc3ccc(C#N)cc3)[nH]c(=O)c12 [Example 358]
7,> 1000 nM,CN(C(=O)Cn1nccc1-c1cc(Cl)c2nnn(-c3ccc4cn[nH]c4c3)c2c1)c1ccccc1 [Example 187]
8,100 to 1000 nM,N#Cc1ccc(Cn2nccc2-c2cc3c(cc2Cl)nnn3-c2ccc3cn[nH]c3c2)cc1 [Example 151]
9,100 to 1000 nM,CC(c1ccc(C#N)cc1F)n1nccc1-c1cc2c(cc1F)nnn2-c1ccc2cn[nH]c2c1 (centres unmarked) [Example 412]
10,100 to 1000 nM,Clc1ccc(Cn2nccc2-c2cnc3cnn(-c4ccc5cn[nH]c5c4)c3c2)nc1 [Example 164]
11,< 100 nM,N#Cc1ccc(Cn2nccc2-c2cnc3c(N)nn(-c4cc5[nH]ncc5cc4F)c3c2)cc1 [Example 364]
12,100 to 1000 nM,FC(F)(F)c1cc(-c2ccnn2Cc2ccc(Cl)cc2Cl)cc2c1nnn2-c1ccc2cn[nH]c2c1 [Example 122]
13,> 1000 nM,Nc1cc(-n2nnc3c(F)cc(-c4ccnn4Cc4ccc(Cl)cn4)cc32)ccc1O [Example 160]
14,100 to 1000 nM,N#Cc1ccc(Cn2nccc2-c2cc(F)c3nnn(-c4ccc5[nH]c(=O)[nH]c5c4)c3c2)c(S(N)(=O)=O)c1 [Example 310]
15,> 1000 nM,N#Cc1ccc(Cn2nccc2-c2cc(F)c3nnn(-c4ccc5c(CCO)n[nH]c5c4)c3c2)cc1 [Example 349]
16,100 to 1000 nM,CC(=O)c1cc(C#N)ccc1Cn1nccc1-c1cc(F)c2nnn(-c3ccc4[nH]c(=O)[nH]c4c3)c2c1 [Example 289]
17,100 to 1000 nM,Cc1cc(Cl)cnc1Cn1nccc1-c1cc(Cl)c2nnn(-c3ccc4[nH]c(=O)[nH]c4c3)c2c1 [Example 225]
18,100 to 1000 nM,Cc1cc(-n2nccc2-c2cc(Cl)c3nnn(-c4ccc5[nH]c(=O)[nH]c5c4)c3c2)cc(C)n1 [Example 300]
19,> 1000 nM,O=C(O)c1cccc(-n2nnc3c(F)cc(-c4ccnn4Cc4ccc(Cl)cc4Cl)cc32)c1 [Example 132]
20,> 1000 nM,N#Cc1ccc(Cn2nccc2-c2cc3c(cn2)ncn3-c2ccc3cn[nH]c3c2)cc1 [Example 146]
21,100 to 1000 nM,COc1cc(Cl)ccc1Cn1nccc1-c1cc(F)c2nnn(-c3ccc4[nH]c(=O)[nH]c4c3)c2c1 [Example 284]
22,> 1000 nM,CC(c1ccccn1)n1nccc1-c1cc(Cl)c2nnn(-c3ccc4cn[nH]c4c3)c2c1 (centres unmarked) [Example 99]
23,100 to 1000 nM,Clc1cnc(Cn2nccc2-c2cc(Cl)c3nnn(-c4ccc5cn[nH]c5c4)c3c2)c(Cl)c1 [Example 80]

row,IC50,SMILES
1,100 to 1000 nM,Cc1cnn(Cc2ccc(Cl)cc2)c1-c1cc(Cl)c2nnn(-c3ccc4cn[nH]c4c3)c2c1 [Example 56]
2,100 to 1000 nM,c1cc(-c2ccc3nnn(-c4ccc5cn[nH]c5c4)c3c2)n(Cc2ccc(C3CC3)cc2)n1 [Example 119]
3,100 to 1000 nM,CC(c1ccc(Cl)c[n+]1[O-])n1c(-c2cc3c(cc2F)nnn3-c2ccc3cn[nH]c3c2)cc[n+]1[O-] (centres unmarked) [Example 387]
4,100 to 1000 nM,Cc1cccc(-n2nccc2-c2cnc3c(C)nn(-c4ccc5cn[nH]c5c4)c3c2)c1 [Example 408]
5,100 to 1000 nM,N#Cc1ccc(Cn2nccc2-c2cnc3c(N)nn(-c4ccc5cn[nH]c5c4)c3c2)cc1 [Example 218]
6,> 1000 nM,COc1cc(F)ccc1Cn1nccc1-c1cc2c(cn1)nnn2-c1ccc2[nH]c(=O)[nH]c2c1 [Example 237]
7,100 to 1000 nM,O=c1[nH]c2ccc(-n3nnc4c(F)cc(-c5ccnn5Cc5cccc(Cl)c5Cl)cc43)cc2[nH]1 [Example 283]
8,100 to 1000 nM,N#Cc1ccc(Cn2nccc2-c2cc3c(cn2)nnn3-c2ccc3[nH]c(=O)[nH]c3c2)cc1 [Example 154]
9,100 to 1000 nM,Cc1cnn(Cc2ccc(C#N)cc2)c1-c1cc(F)c2nnn(-c3ccc4[nH]c(=O)[nH]c4c3)c2c1 [Example 334]
10,> 1000 nM,N#Cc1cc(F)c(Cn2nccc2-c2cc(F)c3nnn(-c4ccc5[nH]c(=O)[nH]c5c4)c3c2)c(Cl)c1 [Example 276]
11,< 100 nM,Fc1cc(-c2ccnn2Cc2ccc(Cl)cn2)cc2c1nnn2-c1ccc2cn[nH]c2c1 [Example 101]
12,> 1000 nM,Nc1cccc(-n2nnc3c(Cl)cc(-c4ccnn4Cc4ccc(Cl)cc4Cl)cc32)c1 [Example 162]
13,> 1000 nM,O=C(Cn1nccc1-c1cc(Cl)c2nnn(-c3ccc4cn[nH]c4c3)c2c1)N1CCCCC1 [Example 184]
14,> 1000 nM,N#Cc1ccccc1Cn1nccc1-c1cc(F)c2nnn(-c3ccc4[nH]c(=O)[nH]c4c3)c2c1 [Example 214]
15,100 to 1000 nM,N#Cc1ccc(Cn2nccc2-c2cc(F)c3nnn(-c4ccc5cn[nH]c5c4)c3c2)nc1 [Example 107]
16,< 100 nM,FC(F)c1ccc(Cn2nccc2-c2cc(Cl)c3nnn(-c4ccc5cn[nH]c5c4)c3c2)cc1 [Example 63]
17,100 to 1000 nM,N#Cc1ccc(Cn2nccc2-c2cc(F)c3nnn(-c4ccc5[nH]c(=O)[nH]c5c4)c3c2)nc1 [Example 176]
18,> 1000 nM,Fc1cc(-c2ccnn2Cc2ccc(-c3ncco3)cc2)cc2c1nnn2-c1ccc2cn[nH]c2c1 [Example 177]
19,100 to 1000 nM,Cc1nn(-c2ccc3cn[nH]c3c2)c2cc(-c3ccnn3Cc3ccc(C#N)cc3)ncc12 [Example 405]
20,< 100 nM,[O-][n+]1cc(Cl)ccc1Cn1nccc1-c1cc(Cl)c2nnn(-c3ccc4cn[nH]c4c3)c2c1 [Example 366]
21,> 1000 nM,O=c1[nH]c2ccc(-n3nnc4c(F)cc(-c5ccnn5CCOc5ccccc5)cc43)cc2[nH]1 [Example 202]
22,> 1000 nM,N#Cc1ccc(Cn2nccc2-c2cc3c(c(N)nn3-c3ccc4[nH]c(=O)[nH]c4c3)[n+]([O-])c2)cc1 [Example 365]
23,> 1000 nM,O=c1[nH]c2ccc(-n3nnc4c(F)cc(-c5ccnn5Cc5cccc6c5OC(F)(F)O6)cc43)cc2[nH]1 [Example 229]

row,IC50,SMILES
1,> 1000 nM,CC(NC(=O)Cn1nccc1-c1cc(Cl)c2nnn(-c3ccc4cn[nH]c4c3)c2c1)c1ccccc1 (centres unmarked) [Example 185]
2,< 100 nM,N#Cc1ccc(Cn2nccc2-c2cc(Cl)c3nnn(-c4ccc5[nH]c(=O)[nH]c5c4)c3c2)c(Cl)c1 [Example 250]
3,> 1000 nM,N#Cc1cccc(Cn2nccc2-c2ccc3nnn(-c4ccc5cn[nH]c5c4)c3c2)c1 [Example 48]
4,100 to 1000 nM,FC(F)(F)c1ccc(Cn2nccc2-c2cc(Cl)c3nnn(-c4ccc5cn[nH]c5c4)c3c2)cc1 [Example 69]
5,100 to 1000 nM,N#Cc1ccc(Cn2nccc2-c2cnc3nnn(-c4ccc5cn[nH]c5c4)c3c2)cc1 [Example 129]
6,100 to 1000 nM,CC(c1ccc(Cl)cn1)n1nccc1-c1cc2c(cc1Cl)nnn2-c1ccc2cn[nH]c2c1 (centres unmarked) [Example 402]
7,< 100 nM,N#Cc1ccc(Cn2nccc2-c2cc(Cl)c3nnn(-c4ccc5cn[nH]c5c4)c3c2)c(F)c1 [Example 112]
8,< 100 nM,CCc1ccc(Cn2nccc2-c2cc(Cl)c3nnn(-c4ccc5cn[nH]c5c4)c3c2)cc1 [Example 68]
9,< 100 nM,FC(F)(F)Oc1ccc(Cn2nccc2-c2cc(Cl)c3nnn(-c4ccc5cn[nH]c5c4)c3c2)cc1 [Example 46]
10,100 to 1000 nM,Fc1cc(-c2ccnn2Cc2ccc(C(F)F)cc2)cc2c1nnn2-c1ccc2cn[nH]c2c1 [Example 91]
11,100 to 1000 nM,N#Cc1ccc(Cn2nccc2-c2cc(F)c3nnn(-c4ccc5c(N)n[nH]c5c4)c3c2)cc1 [Example 345]
12,> 1000 nM,Cn1ccc(Cn2nccc2-c2cc(F)c3nnn(-c4ccc5[nH]c(=O)[nH]c5c4)c3c2)n1 [Example 266]
13,100 to 1000 nM,Cc1ccc(C(C)n2nccc2-c2cc(Cl)c3nnn(-c4ccc5cn[nH]c5c4)c3c2)nc1 (centres unmarked) [Example 380]
14,100 to 1000 nM,N#Cc1ccc(Cn2nccc2-c2cc3c(cn2)c(N)nn3-c2ccc3[nH]c(=O)[nH]c3c2)cc1 [Example 314]
15,> 1000 nM,Fc1ccc(Cn2nccc2-c2cc(F)c3nnn(-c4ccc5nc[nH]c5c4)c3c2)nc1 [Example 172]
16,100 to 1000 nM,O=c1[nH]c2ccc(-n3nnc4c(F)cc(-c5ccnn5Cc5ccc6[nH]ncc6c5)cc43)cc2[nH]1 [Example 223]
17,> 1000 nM,CS(=O)(=O)Nc1cc(Cl)ccc1Cn1nccc1-c1cc(F)c2nnn(-c3ccc4[nH]c(=O)[nH]c4c3)c2c1 [Example 251]
18,100 to 1000 nM,Cc1ccc(Cn2nccc2-c2cc(F)c3nnn(-c4ccc5cn[nH]c5c4)c3c2)nc1 [Example 86]
19,< 100 nM,Fc1cc(Cn2nccc2-c2cc(Cl)c3nnn(-c4ccc5cn[nH]c5c4)c3c2)ccc1Cl [Example 82]
20,> 1000 nM,CC(c1ccc(C(N)=O)cc1)n1nccc1-c1ccc2nnn(-c3ccc4cn[nH]c4c3)c2c1 (centres unmarked) [Example 118]
21,100 to 1000 nM,N#Cc1ccc(Cn2nccc2-c2cc(F)c3nnn(-c4ccc5[nH]c(=O)[nH]c5c4)c3c2)c(S(=O)(=O)c2ccccc2)c1 [Example 291]
22,100 to 1000 nM,COc1nc(-c2ccnn2Cc2ccc(C#N)cc2)cc2c1nnn2-c1ccc2cn[nH]c2c1 [Example 357]

# Reference: patent US11931343B2 (ARCUS BIOSCIENCES, INC., priority 2018, dated 2024)
